Data as given in ChEMBL document CHEMBL5465560, “Selectivity Literature for EUbOPEN Chemogenomic Library” (2024).
Blank lines part the entries; values can stand above or below the molecule they belong to.

Assays:
[1] = biological target: Casein kinase II subunit alpha (Homo sapiens, UniProt P68400); assay: Selectivity interaction (Kinase panel (Z-LYTE Assay)) EUB0001632a CSNK2A1; conditions: at 10 µM
[2] = biological target: T1, Dual specificity mitogen-activated protein kinase kinase 6 (Homo sapiens) (UniProt P52564); assay: Selectivity interaction (ActivX KiNativ screen (kinase selectivity in THP-1 cell lysates)) EUB0000639a MAP2K6; assay type: subcellular; conditions: lysate, at 5 µM
T1 sequence (whole entry): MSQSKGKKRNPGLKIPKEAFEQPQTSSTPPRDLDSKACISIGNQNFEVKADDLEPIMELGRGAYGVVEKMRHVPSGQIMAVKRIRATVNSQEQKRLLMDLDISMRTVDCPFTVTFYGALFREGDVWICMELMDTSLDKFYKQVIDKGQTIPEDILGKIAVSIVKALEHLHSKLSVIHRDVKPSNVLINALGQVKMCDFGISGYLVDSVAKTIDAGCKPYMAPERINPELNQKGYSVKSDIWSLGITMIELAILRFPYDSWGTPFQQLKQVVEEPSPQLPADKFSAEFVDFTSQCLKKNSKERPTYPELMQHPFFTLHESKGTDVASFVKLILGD

[3] = biological target: Ephrin type-A receptor 2 (Homo sapiens) (UniProt P29317); assay: Selectivity interaction (Kinase panel (DSF assay)) EUB0001559a EPHA2
Chain of Ephrin type-A receptor 2 (Homo sapiens) (P29317 whole entry): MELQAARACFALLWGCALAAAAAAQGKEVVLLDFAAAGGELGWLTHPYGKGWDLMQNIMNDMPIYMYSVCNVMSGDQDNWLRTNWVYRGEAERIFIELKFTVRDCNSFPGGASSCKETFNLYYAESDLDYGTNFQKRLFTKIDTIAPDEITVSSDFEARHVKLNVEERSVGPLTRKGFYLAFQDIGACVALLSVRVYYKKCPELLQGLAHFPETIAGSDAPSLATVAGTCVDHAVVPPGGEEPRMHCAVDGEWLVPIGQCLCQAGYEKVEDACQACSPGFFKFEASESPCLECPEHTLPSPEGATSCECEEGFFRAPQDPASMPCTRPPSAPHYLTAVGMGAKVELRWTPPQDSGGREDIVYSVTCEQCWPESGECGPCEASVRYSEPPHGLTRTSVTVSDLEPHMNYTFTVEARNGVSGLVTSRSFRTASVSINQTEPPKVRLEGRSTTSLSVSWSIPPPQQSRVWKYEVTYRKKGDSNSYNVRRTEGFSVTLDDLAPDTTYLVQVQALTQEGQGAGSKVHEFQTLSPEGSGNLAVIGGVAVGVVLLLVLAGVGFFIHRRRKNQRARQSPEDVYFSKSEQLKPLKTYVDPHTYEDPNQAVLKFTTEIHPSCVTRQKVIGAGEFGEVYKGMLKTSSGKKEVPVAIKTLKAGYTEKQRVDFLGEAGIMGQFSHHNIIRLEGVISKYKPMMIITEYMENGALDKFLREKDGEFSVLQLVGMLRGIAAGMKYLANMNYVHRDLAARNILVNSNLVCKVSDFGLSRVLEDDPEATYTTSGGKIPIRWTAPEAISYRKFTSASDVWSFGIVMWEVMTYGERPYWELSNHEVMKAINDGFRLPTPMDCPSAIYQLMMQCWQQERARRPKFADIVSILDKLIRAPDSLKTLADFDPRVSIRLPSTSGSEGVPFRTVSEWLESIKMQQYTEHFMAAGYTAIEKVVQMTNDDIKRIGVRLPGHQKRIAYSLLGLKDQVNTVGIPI

[4] = biological target: Serine/threonine-protein kinase PLK2 (Homo sapiens, UniProt Q9NYY3); assay: Selectivity interaction (KinomeScan (DiscoverX)) EUB0000595a PLK2; conditions: at 10 µM
Chain of Serine/threonine-protein kinase PLK2 (Q9NYY3 whole entry, looked up): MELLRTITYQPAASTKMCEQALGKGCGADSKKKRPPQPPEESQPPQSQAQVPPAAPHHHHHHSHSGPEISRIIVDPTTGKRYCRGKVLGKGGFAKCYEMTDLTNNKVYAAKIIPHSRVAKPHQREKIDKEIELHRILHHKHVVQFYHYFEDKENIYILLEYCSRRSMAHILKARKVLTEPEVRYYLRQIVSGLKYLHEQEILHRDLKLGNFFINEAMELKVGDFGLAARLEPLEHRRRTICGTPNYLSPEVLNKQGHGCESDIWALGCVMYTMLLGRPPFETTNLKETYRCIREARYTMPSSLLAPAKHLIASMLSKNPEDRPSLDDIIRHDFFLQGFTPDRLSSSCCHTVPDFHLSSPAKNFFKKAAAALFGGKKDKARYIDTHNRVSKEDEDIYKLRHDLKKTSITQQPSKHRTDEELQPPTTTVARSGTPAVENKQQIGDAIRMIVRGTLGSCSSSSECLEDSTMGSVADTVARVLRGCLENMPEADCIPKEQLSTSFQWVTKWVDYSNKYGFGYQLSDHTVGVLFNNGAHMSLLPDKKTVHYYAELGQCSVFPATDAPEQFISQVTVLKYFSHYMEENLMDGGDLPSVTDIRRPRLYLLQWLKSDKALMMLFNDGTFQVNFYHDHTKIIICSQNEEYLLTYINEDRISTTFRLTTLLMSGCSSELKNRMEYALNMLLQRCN

[5] = biological target: T2, Lymphokine-activated killer T-cell-originated protein kinase (Homo sapiens) (UniProt Q96KB5); assay: Selectivity interaction (Kinase panel (DSF assay)) EUB0001558a PBK
T2 sequence (whole entry): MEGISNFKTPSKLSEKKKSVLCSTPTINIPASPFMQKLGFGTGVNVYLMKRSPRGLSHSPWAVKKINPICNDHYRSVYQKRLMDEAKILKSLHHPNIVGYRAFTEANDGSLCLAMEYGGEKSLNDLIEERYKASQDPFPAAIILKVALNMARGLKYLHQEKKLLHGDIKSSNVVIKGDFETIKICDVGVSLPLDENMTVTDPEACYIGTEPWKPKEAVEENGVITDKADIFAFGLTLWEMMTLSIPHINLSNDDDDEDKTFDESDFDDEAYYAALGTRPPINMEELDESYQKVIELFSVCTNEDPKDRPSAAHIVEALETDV

[6] = biological target: T3, Phosphorylase b kinase gamma catalytic chain, liver/testis isoform (Homo sapiens) (UniProt P15735); assay: Selectivity interaction (KinomeScan (DiscoverX)) EUB0000655a PHKG2; conditions: at 10 µM
T3 sequence (whole entry): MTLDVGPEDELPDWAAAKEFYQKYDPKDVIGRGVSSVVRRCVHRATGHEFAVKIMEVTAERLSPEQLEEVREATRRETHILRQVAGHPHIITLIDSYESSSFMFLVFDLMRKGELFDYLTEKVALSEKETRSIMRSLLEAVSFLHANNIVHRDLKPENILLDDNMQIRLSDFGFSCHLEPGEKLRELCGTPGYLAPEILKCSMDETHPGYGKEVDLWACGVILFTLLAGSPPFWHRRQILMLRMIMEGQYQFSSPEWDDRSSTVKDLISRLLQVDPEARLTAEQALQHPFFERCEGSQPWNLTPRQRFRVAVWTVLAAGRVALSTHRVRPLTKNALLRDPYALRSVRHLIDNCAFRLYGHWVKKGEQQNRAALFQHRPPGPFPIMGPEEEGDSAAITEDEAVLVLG

[7] = biological target: Casein kinase I isoform alpha (Homo sapiens, UniProt P48729); assay: Selectivity interaction (Kinase panel (KiNativ target engagement assay in Jurkat cells)) EUB0001635a CSNK1A1; assay type: cell-based; conditions: Selectivity number of off-targets 0.0, Selectivity number of targets 233.0, Source Knowledge https://www.sciencedirect.com/science/article/pii/S2451945619300674?via%3Dihub, at 1 µM
Chain of Casein kinase I isoform alpha (P48729 2-337 limits assumed): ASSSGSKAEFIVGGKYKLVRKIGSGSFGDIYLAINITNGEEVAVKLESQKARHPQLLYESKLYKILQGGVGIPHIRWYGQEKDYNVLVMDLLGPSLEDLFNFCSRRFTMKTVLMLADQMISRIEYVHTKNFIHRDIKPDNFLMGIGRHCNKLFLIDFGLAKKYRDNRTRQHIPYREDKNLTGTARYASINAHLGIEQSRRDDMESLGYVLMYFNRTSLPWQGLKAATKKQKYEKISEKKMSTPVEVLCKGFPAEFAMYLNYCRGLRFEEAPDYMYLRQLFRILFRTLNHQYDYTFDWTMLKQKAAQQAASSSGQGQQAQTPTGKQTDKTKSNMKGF

[8] = biological target: Serine/threonine-protein kinase PAK 1 (Homo sapiens) (UniProt Q13153); assay: Selectivity interaction (KinomeScan (DiscoverX)) EUB0000229b PAK1; conditions: at 10 µM
Chain of Serine/threonine-protein kinase PAK 1 (Homo sapiens) (Q13153 whole entry): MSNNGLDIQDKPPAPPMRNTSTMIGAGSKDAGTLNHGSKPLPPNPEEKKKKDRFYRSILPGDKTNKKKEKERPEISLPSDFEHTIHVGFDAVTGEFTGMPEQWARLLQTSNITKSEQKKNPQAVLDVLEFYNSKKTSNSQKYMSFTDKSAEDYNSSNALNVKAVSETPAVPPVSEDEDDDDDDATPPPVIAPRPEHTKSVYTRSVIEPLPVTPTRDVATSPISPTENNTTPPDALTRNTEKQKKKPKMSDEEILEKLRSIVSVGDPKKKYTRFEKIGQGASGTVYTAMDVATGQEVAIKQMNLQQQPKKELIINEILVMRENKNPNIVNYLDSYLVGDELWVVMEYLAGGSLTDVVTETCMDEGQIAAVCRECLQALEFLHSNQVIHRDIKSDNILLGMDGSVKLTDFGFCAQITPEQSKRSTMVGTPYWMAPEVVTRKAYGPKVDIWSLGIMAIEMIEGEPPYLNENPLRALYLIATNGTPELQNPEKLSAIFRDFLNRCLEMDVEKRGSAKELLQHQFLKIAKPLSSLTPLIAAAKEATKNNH

[9] = biological target: SRSF protein kinase 1 (Homo sapiens, UniProt Q96SB4); assay: Selectivity interaction (KinomeScan (DiscoverX)) EUB0000229b SRPK1; conditions: at 10 µM
Chain of SRSF protein kinase 1 (Q96SB4 whole entry): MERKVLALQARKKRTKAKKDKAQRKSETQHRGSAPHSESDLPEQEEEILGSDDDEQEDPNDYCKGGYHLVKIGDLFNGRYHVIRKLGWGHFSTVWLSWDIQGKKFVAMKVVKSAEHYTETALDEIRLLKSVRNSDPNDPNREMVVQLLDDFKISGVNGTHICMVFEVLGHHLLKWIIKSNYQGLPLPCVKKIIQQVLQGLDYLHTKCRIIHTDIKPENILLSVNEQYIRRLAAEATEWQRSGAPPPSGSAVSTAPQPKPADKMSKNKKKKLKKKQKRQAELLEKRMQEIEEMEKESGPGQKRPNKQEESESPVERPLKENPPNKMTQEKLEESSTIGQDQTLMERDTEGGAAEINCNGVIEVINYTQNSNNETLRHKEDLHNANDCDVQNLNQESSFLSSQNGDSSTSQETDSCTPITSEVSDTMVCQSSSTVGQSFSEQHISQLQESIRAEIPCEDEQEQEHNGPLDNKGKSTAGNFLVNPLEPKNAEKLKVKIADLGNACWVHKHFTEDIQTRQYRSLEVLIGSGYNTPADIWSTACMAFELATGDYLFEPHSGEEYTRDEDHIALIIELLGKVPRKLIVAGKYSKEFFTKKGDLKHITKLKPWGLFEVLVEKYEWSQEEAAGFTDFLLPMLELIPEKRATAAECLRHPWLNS

[10] = biological target: T4, Phosphatidylinositol 5-phosphate 4-kinase type-2 alpha (Homo sapiens) (UniProt P48426); assay: Selectivity interaction (ActivX KiNativ screen (ex vivo kinase selectivity in human PBMCs)) EUB0001619a PIP4K2A; assay type: cell-based; conditions: PBMC, at 1 µM
T4 sequence (whole entry): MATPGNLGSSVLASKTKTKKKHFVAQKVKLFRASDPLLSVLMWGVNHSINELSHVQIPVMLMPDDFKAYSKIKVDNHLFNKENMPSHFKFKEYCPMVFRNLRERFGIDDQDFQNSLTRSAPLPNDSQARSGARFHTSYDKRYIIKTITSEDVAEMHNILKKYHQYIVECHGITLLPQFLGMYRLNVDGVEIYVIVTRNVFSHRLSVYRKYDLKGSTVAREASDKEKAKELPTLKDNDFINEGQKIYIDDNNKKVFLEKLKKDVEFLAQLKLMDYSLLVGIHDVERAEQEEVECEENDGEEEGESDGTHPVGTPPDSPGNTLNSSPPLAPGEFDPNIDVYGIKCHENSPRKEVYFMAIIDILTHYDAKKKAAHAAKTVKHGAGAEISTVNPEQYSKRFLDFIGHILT

[11] = biological target: STE20/SPS1-related proline-alanine-rich protein kinase (Homo sapiens) (UniProt Q9UEW8); assay: Selectivity interaction (KinomeScan (DiscoverX)) EUB0001619a STK39; conditions: at 1 µM

Chain of Casein kinase II subunit alpha (P68400 whole entry, looked up): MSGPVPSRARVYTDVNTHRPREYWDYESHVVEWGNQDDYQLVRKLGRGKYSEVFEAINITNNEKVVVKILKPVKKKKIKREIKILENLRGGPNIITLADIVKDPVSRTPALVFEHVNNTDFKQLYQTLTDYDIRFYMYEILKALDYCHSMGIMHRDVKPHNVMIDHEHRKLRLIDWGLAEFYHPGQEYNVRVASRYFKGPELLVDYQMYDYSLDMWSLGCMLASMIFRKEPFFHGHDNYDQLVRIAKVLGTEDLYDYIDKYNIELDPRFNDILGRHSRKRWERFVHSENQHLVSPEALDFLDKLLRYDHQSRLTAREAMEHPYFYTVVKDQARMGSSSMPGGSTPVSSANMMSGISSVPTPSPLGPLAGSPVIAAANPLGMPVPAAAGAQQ

- % of control [1]: -3.76%
SMILES: Cn1cc(-n2cnc3c(NCc4nc5cc(Cl)c(Cl)cc5[nH]4)nc(N4CCOCC4)nc32)cn1

- % of inhibition [2]: 55.8%
SMILES: CC[C@@H]1[C@H](F)C(=O)N[C@@H]1COc1nccc2cc(C(N)=O)c(OC)cc12 [ZIMLOVISERTIB]

- dTM [3]: -0.4 K
SMILES: CN(C(=O)c1cnn2cccnc12)c1cc2c(cc1N1CCOCC1)C(=O)N(C[C@@H](F)C(C)(C)O)C2

SMILES: COCC(=O)NC/C=C/c1ccc2ncnc(Nc3ccc(Oc4ccc(C)nc4)c(C)c3)c2c1 [CP-724714]
- % of control [4]: 100%

SMILES: CC(C)(O)[C@H](F)CN1Cc2cc(NC(=O)c3cnn4cccnc34)c(N3CCOCC3)cc2C1=O
- dTM [5]: -1.2 K

SMILES: CN(C)CCOc1ccc(-c2nc(-c3ccncc3)c(-c3ccc4c(c3)CC/C4=N\O)[nH]2)cc1
- % of control [6]: 100%

SMILES: C=CC(=O)Nc1ccc(C(=O)Nc2[nH]nc3c2CN(C(=O)N[C@H](CN(C)C)c2ccccc2)C3(C)C)cc1
- % of engagement [7]: -2%

SMILES: COc1cc(N(C)c2ccnc3ccc(C(F)(F)F)cc23)cc(OC)c1OC
- % binding [8]: 89%
- % binding [9]: 92%

SMILES: N#Cc1cccc(-c2c[nH]c3ncnc(N4CCOCC4)c23)c1
- % of inhibition [10]: 15%
- % of control [11]: 92%
